For seven compounds, Activity, inhibition and IC50 results are on record in ChEMBL document CHEMBL1833865, “Oleanane-type triterpene saponins from the bark of Aralia elata and their NF-κB inhibition and PPAR activation signal pathway” (Bioorg Med Chem Lett, 2011).

Type in all cases: cell-based
Series [1] addresses T1, Peroxisome proliferator-activated receptor delta (Homo sapiens) (UniProt Q03181).
T1 sequence (whole entry): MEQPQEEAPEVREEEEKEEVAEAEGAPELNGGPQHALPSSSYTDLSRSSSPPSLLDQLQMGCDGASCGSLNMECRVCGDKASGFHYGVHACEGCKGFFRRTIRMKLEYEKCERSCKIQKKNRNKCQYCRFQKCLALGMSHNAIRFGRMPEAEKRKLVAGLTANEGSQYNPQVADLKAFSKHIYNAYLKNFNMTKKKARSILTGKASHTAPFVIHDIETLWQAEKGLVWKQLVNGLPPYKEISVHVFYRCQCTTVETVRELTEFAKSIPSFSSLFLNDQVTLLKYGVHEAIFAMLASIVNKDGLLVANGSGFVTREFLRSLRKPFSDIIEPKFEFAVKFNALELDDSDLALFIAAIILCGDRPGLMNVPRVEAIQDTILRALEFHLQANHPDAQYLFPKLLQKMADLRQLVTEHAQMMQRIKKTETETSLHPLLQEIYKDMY
Nature of the series: Transactivation of Gal4-fused PPARbeta/delta ligand binding domain expressed in human HepG2 cells co-transfected with pFRLuc and pRL-CMV at 0.1 to 10 uM after 20 hrs by dual-luciferase reporter gene assay. On the technique in general: In a reporter assay the amount or activity of a reporter protein is the signal.

In series [2] the test system is HepG2. Nature of the series: Inhibition of NFkappaB activation expressed in human HepG2 cells assessed as reduction in TNF-alpha-induced iNOS mRNA expression preincubated 1 hr before TNFalpha challenge measured after 6 hrs by RT-PCR analysis.
The subject of series [3] is HepG2. The experiment in a line: Inhibition of NF-kappaB activation expressed in human HepG2 cells assessed as reduction in TNFalpha-induced COX2 mRNA expression preincubated 1 hr before TNFalpha challenge measured after 6 hrs by RT-PCR analysis.
Series [4] addresses T2, Peroxisome proliferator-activated receptor gamma (Homo sapiens) (UniProt P37231).
T2 sequence (whole entry): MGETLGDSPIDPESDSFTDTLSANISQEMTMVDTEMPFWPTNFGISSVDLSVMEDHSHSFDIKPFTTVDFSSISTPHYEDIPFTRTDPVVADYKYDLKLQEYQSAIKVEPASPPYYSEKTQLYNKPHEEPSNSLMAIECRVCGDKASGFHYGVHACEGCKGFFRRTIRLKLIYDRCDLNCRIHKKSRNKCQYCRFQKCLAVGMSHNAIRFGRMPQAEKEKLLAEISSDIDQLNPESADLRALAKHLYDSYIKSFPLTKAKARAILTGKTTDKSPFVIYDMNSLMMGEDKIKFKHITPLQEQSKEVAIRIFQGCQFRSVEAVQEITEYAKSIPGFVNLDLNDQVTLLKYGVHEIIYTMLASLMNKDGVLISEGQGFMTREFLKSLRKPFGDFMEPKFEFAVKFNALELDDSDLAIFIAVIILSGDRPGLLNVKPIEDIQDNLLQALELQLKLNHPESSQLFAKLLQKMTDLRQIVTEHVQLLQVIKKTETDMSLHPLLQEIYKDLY
The experiment in a line: Transactivation of Gal4-fused PPARgamma ligand binding domain expressed in human HepG2 cells co-transfected with pFR-Luc and pRL-CMV at 0.1 to 10 uM after 20 hrs by dual-luciferase reporter gene assay.

Series [5] deals with HepG2. Nature of the series: Cytotoxicity against human HepG2 cells assessed as cell viability at 10 uM after 24 hrs by MTS assay. Conditions: hepg2, 24 h.
The target of series [6] is T3, Peroxisome proliferator-activated receptor alpha (Homo sapiens) (UniProt Q07869).
T3 sequence (whole entry): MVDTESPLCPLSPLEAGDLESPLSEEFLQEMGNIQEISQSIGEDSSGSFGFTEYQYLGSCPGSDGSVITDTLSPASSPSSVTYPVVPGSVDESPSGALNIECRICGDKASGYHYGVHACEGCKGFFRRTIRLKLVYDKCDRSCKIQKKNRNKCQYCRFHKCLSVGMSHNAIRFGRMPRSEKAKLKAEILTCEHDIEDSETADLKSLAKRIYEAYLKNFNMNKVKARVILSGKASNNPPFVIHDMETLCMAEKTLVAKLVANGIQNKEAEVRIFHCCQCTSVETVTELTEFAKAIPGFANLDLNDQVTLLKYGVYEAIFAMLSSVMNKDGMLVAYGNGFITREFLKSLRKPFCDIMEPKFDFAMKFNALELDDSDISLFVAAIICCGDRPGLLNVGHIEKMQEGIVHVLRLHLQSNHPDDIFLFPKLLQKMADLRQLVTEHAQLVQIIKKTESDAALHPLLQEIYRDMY
Nature of the series: Transactivation of Gal4-fused PPARalpha ligand binding domain expressed in human HepG2 cells co-transfected with pFR-Luc and pRL-CMV at 0.1 to 10 uM after 20 hrs by dual-luciferase reporter gene assay.

Series [7] in a line: Inhibition of NF-kappaB activation expressed in TNFalpha-stimulated human HepG2 cells co-transfected with […] plasmid pretreated for 1 hr before TNFalpha challenge measured after 24 hrs by luciferase reporter gene assay.

Calls of active or inactive are those of the source. No cut-off for these calls is given here.

Turning to `CC1(C)CC[C@]2(C(=O)O[C@@H]3O[C@H](CO)[C@@H](O)[C@H](O)[C@H]3O)CC[C@]3(C)C(=CC[C@@H]4[C@@]5(C)CC[C@H](O[C@@H]6O[C@H](C(=O)O)[C@@H](O)[C@H](O[C@@H]7O[C@H](CO)[C@@H](O)[C@H](O)[C@H]7O)[C@H]6O[C@@H]6OC[C@H](O)[C@H](O)[C@H]6O)C(C)(C)[C@@H]5CC[C@]43C)[C@@H]2C1`, the result in series [1] and in series [6] was inactive. Further, the inhibition entry in series [2] and in series [3] was “Dose-dependent effect” in each case. Besides, the result in series [4] was Active. The Activity entry in series [5] was “Non-toxic”. The IC50 (usually the concentration needed to halve the response being measured) in series [7] was determined as 9.5 µM.
Take `COC(=O)[C@H]1O[C@@H](O[C@H]2CC[C@]3(C)[C@H]4CC=C5[C@@H]6CC(C)(C)CC[C@]6(C(=O)O[C@@H]6O[C@H](CO)[C@@H](O)[C@H](O)[C@H]6O)CC[C@@]5(C)[C@]4(C)CC[C@H]3C2(C)C)[C@H](O[C@@H]2OC[C@H](O)[C@H](O)[C@H]2O)[C@@H](O[C@@H]2O[C@H](CO)[C@@H](O)[C@H](O)[C@H]2O)[C@@H]1O`: the result in series [1] and in series [6] was inactive. Also, the outcome in series [4] was Active. Further, the Activity result in series [5] was “Non-toxic”.
With `CC1(C)CC[C@]2(C(=O)O[C@@H]3O[C@H](CO)[C@@H](O)[C@H](O)[C@H]3O)CC[C@]3(C)C(=CC[C@@H]4[C@@]5(C)CC[C@H](O[C@@H]6O[C@H](C(=O)O)[C@@H](O)[C@H](O[C@@H]7O[C@H](CO)[C@H](O)[C@H](O)[C@H]7O)[C@H]6O[C@@H]6O[C@H](CO)[C@H](O)[C@H](O)[C@H]6O)C(C)(C)[C@@H]5CC[C@]43C)[C@@H]2C1` [ELATOSIDE D], the outcome in series [1] and in series [6] was inactive. Further, in series [4], the outcome was Active. Further, the Activity result in series [5] is given as “Non-toxic”.
As to `CC1(C)CC[C@]2(C(=O)O[C@@H]3O[C@H](CO[C@@H]4O[C@H](CO)[C@@H](O)[C@H](O)[C@H]4O)[C@@H](O)[C@H](O)[C@H]3O)CC[C@]3(C)C(=CC[C@@H]4[C@@]5(C)CC[C@H](O[C@@H]6O[C@H](C(=O)O)[C@@H](O[C@@H]7O[C@@H](CO)[C@H](O)[C@H]7O)[C@H](O)[C@H]6O[C@@H]6O[C@H](CO[C@@H]7O[C@H](CO)[C@@H](O)[C@H](O)[C@H]7O)[C@@H](O)[C@H](O)[C@H]6O)C(C)(C)[C@@H]5CC[C@]43C)[C@@H]2C1` [ELATOSIDE L], the inhibition entry in series [2] and in series [3] was “Dose-dependent effect” in each case. In series [5], the Activity result is recorded as “Non-toxic”. Moreover, the IC50 in series [7] turned out to be 4.1 µM.
On to `CC1(C)CC[C@]2(C(=O)O[C@@H]3O[C@H](CO)[C@@H](O)[C@H](O)[C@H]3O)CC[C@]3(C)C(=CC[C@@H]4[C@@]5(C)CC[C@H](O[C@@H]6O[C@H](C(=O)O)[C@@H](O[C@H]7O[C@@H](CO)[C@H](O)[C@H]7O)[C@H](O[C@@H]7O[C@H](CO)[C@@H](O)[C@H](O)[C@H]7O)[C@H]6O)C(C)(C)[C@@H]5CC[C@]43C)[C@@H]2C1` [STIPULEANOSIDE R2], for which the Activity result in series [5] is given as “Non-toxic”.
For the compound `O=C(O)c1cc(/N=N/c2ccc(S(=O)(=O)Nc3ccccn3)cc2)ccc1O` [SULFASALAZINE], the IC50 in series [7] was determined as 0.9 µM.
On to `CC1(C)CC[C@]2(C(=O)O[C@@H]3O[C@H](CO)[C@@H](O)[C@H](O)[C@H]3O)CC[C@]3(C)C(=CC[C@@H]4[C@@]5(C)CC[C@H](O[C@@H]6O[C@H](C(=O)O)[C@@H](O[C@@H]7O[C@@H](CO)[C@H](O)[C@H]7O)[C@H](O)[C@H]6O[C@@H]6O[C@H](CO)[C@@H](O)[C@H](O)[C@H]6O)C(C)(C)[C@@H]5CC[C@]43C)[C@@H]2C1` [TARASAPONIN IV], for which the Activity result in series [5] is listed as “Non-toxic”.
